Reference: patent US20230058279A1, “HERBICIDE COMPOSITIONS WITH AUXIN HERBICIDE MONOETHANOLAMINE SALTS WITH IMPROVED PROPERTIES” (MONSANTO TECHNOLOGY LLC, priority 2020, published 2023)

Assay: Partition coefficient of compound (A) in solvents
Type: physicochemical
Conditions: HPLC
Experimental: Experimental procedure for the respective solvent: (1) A solution of 10 g of compound (A) is prepared in 90 g of the respective solvent. (2) An aliquot of 10 g of the solution obtained in step (1) is added to 90 g of water in a glass bottle, which is shaken on a mechanical shaker for 4 hours at ambient temperature (approximately 25° C.). (3) The contents of the glass bottle are permitted to phase separate for 4 days at ambient temperature (approximately 25° C.). (4) Subsamples of the resulting oil and water phases are taken and analyzed by HPLC to determine the concentrations of compound (A) in oil (Co) and water phases (Cw) respectively. The subsamples are typically centrifuged before HPLC analysis to remove traces of organic solvent from the water phase.
A Partition Coefficient, analogous to the Octanol-Water Partition Coefficient, P, is calculated as Co/Cw. The Partition Coefficient is conveniently expressed as a logarithm […].
The ratio of determined concentrations of compound (A) in the solvent phase and the water phase typically is very large. […] In other cases, traces of the organic solvent are found in the water phase, even after centrifugation, so that the apparent concentration of oil-soluble herbicide observed in the water phase is misleadingly high. […]

For CCOC(=O)COc1ncccc1Oc1cc(-n2c(=O)cc(C(F)(F)F)n(C)c2=O)c(F)cc1Cl [Cmp. A, ethyl [3-[2-chloro-4-fluoro-5-(1-methyl-6-trifluoromethyl-2,4-dioxo-1,2,3,4-tetrahydropyrimidin-3-yl)phenoxy]-2-pyridyloxy]acetate], the “compound (A) in the water phase” value (acetophenone as organic solvent) was “undetectable” and the “compound (A) in the water phase” value (aromatic 200ND as organic solvent) was “undetectable”.
